Assay results from US5023376A, “Reduction of nitrosamine formation” (Interox America, priority 1989, dated 1991).
“Also recorded” adds a separate entry of the source. Where a name gives a salt, the structure may show the parent alone. Read-outs that look alike come from different tables or passages of the source.

Key:
[1] = oxidation of dodecyldimethylamine with hydrogen peroxide under transition metal stress conditions in presence of phosphonate or other chelating agent (residual peroxide/amine, amine oxide yield, amine conversion)
Text: The residual amounts of peroxide and amine are the measured amounts in the mixture, the A O yield indicated is the weight percentage of measured amine oxide based on the amount of amine employed, assuming a purity of 97.5% and the amine conversion is based on the weight of the amine material (as 100%) that has been consumed.

[2] = residual nitrosamine content measured by gas chromatography - thermal energy analyzer; conditions: for Residual Nitrosamines: Table 2, sum of dimethylnitrosamine and dodecylmethylnitrosamine, mole ratio about 4.3:1; for Residual Nitrosamine: Table 3
Text: In addition to determining the effect of the phosphonates upon the extent of the reaction, the residual content of nitrosamines was independently measured by gas chromatography - thermal energy analyzer, and Table 2 below gives the sum of the two principal nitrosamines, namely dimethylnitrosamine and dodecylmethylnitrosamine.

[3] = Table 1, amine oxide, based on amine employed, assuming purity of 97.5%, stress conditions, mole ratio about 4.3:1
[4] = Table 1, stress conditions, 2.5 ppm metals, phosphonate:metal mole ratio about 4.3:1
[5] = Table 1, weight of amine consumed, stress conditions, mole ratio about 4.3:1
[6] = Table 3, chelating agent:metals mole ratio 4.3:1
[7] = chelating agent:metals mole ratio 4.3:1
[8] = Table 1, mole ratio ATMP:metals 7.3:1 (C 5)
[9] = Table 1, stress conditions, 2.5 ppm metals, […]
[10] = Table 1, phosphonate pre-mixed with the hydrogen peroxide solution (Ex 3)
[11] = Table 3, lower mole ratio 2.15:1 (Ex 10)

| Compound | A O yield [1, 3] [wt %] | Residual Amine [1, 4] [wt %] | Residual Peroxide [1, 4] [wt %] | Amine Conversion [1, 5] [wt %] | Residual Nitrosamines [2] [ppb] | A O yield [1, 6] [wt %] | Amine Conversion [1, 6] [wt %] | Peroxide Consumed [1, 6] [wt %] | Residual Nitrosamine [2, 7] [ppb] | further results |
| --- | --- | --- | --- | --- | --- | --- | --- | --- | --- | --- |
| O=P(O)(O)CN1CCN(CP(=O)(O)O)CCN(CP(=O)(O)O)CCN(CP(=O)(O)O)CCN(CP(=O)(O)O)CCN(CP(=O)(O)O)CC1 [HCMP, hexacyclenehexa(methylenephosphonic acid)] | 97.1 | 0.9 | 0.76 | 96.8 | 1056 | – | – | – | – | effectiveness in the amine oxidation process (in words) ([1]; stress conditions): very great amelioration of the problem |
| O=C(O)CN(CC(=O)O)C1CCCCC1N(CC(=O)O)CC(=O)O (stereo not shown) [CDTA, cyclohexane-1,2-diaminotetra(acetic acid), sodium salt] | – | – | – | – | – | 34.4 | 68.1 | 99.9 | 3279 | – |
| CC(O)(P(=O)(O)O)P(=O)(O)O [HEDP, hydroxyethylidene-1,1-diphosphonic acid] | – | – | – | – | – | 32.1 | 48.2 | 99.6 | 10024 | effectiveness in the amine oxidation process (in words) ([1]; stress conditions, listed as (hydroxyethylidene)diphosphonic acid): significantly inferior; effectiveness in the amine oxidation process (in words) ([1]; stress conditions, listed as C12): ineffective |
| O=P(O)(O)CN(CP(=O)(O)O)CP(=O)(O)O [ATMP, aminotris(methylenephosphonic acid) sodium salt] | 38.3 | – | – | 40.5 | 11036 | – | – | – | – | A O yield [1, 8]: 63.1 wt %; Amine Conversion [1, 8]: 65.7 wt %; Residual Amine [1, 8]: 9.9 wt %; Residual Peroxide [1, 8]: 0.02 wt %; Residual Amine [1, 9]: 17.3 wt %; Residual Peroxide [1, 9]: 0.02 wt %; effectiveness in the amine oxidation process (in words) ([1]; stress conditions, listed as C4, sodium salt): less amine conversion and a lower yield of amine oxide than the corresponding reaction to which no phosphonates had been introduced; effectiveness in the amine oxidation process (in words) ([1]; stress conditions, listed as C5, sodium salt): rather better than C4, but still very markedly worse than the results for Ex2/3, Ex6 or Ex7; effectiveness in the amine oxidation process (in words) ([1]; stress conditions, sodium salt): did not perform with similar effectiveness; effect on residual nitrosamine content (in words) ([2]; text conclusion from Table 2): significantly worse |
| O=C([O-])CN(CCN(CC(=O)[O-])CC(=O)[O-])CC(=O)[O-].[Na+].[Na+].[Na+].[Na+] [EDTA, ethylenediaminetetra(acetic acid), sodium salt] | – | – | – | – | – | – | – | – | 3421 | A O yield [1]: 35.3 wt %; Amine Conversion [1]: 54.8 wt %; Peroxide Consumed [1]: 99.9 wt % |
| O=C(O)CN(CCN(CC(=O)O)CC(=O)O)CCN(CC(=O)O)CC(=O)O [DTPA, diethylenetriaminepenta(acetic acid), sodium salt] | – | – | – | – | – | 83.9 | 83.2 | 99.6 | 7017 | – |
| O=P(O)(O)CN(CCN(CP(=O)(O)O)CP(=O)(O)O)CCN(CP(=O)(O)O)CP(=O)(O)O [DTPMPA] | – | – | – | – | – | 96.5 | 96.1 | 86.4 | 1591 | – |
| O=P(O)(O)CN(CP(=O)(O)O)C1CCCCC1N(CP(=O)(O)O)CP(=O)(O)O (stereo not shown) [CDTMP, cyclohexanediaminotetra(methylenephosphonic acid), sodium salt] | 97.7 | 0.8 | 0.67 | 97.3 | 1950 | – | – | – | – | effectiveness in the amine oxidation process (in words) ([1]; stress conditions): very great amelioration of the problem |
| O=P(O)(O)CN(CCCCCCN(CP(=O)(O)O)CP(=O)(O)O)CP(=O)(O)O [HDTMP, hexamethylenediaminetetra(methylene phosphonic acid)] | – | – | – | – | – | 37.0 | 58.7 | 99.6 | 3834 | effectiveness in the amine oxidation process (in words) ([1]; stress conditions, listed as C11): singularly ineffective; effectiveness in the amine oxidation process (in words) ([1]; stress conditions, listed as hexamethylenediaminotetra(methylenephosphonic acid)): significantly inferior |
| O=P(O)(O)CN(CCN(CP(=O)(O)O)CP(=O)(O)O)CCN(CP(=O)(O)O)CP(=O)(O)O [DTPMP, diethylenetriaminepenta(methylenephosphonic acid), sodium salt] | 96.2 | 1.6 | 0.72 | 94.4 | 251 | – | – | – | – | A O yield [1, 10]: 97.2 wt %; Amine Conversion [1, 10]: 96.7 wt %; Residual Amine [1, 10]: 0.9 wt %; Residual Peroxide [1, 10]: 0.66 wt %; A O yield [1, 11]: 98.8 wt %; Amine Conversion [1, 11]: 98.3 wt %; Peroxide Consumed [1, 11]: 83.1 wt %; effectiveness in the amine oxidation process (in words) ([1]; stress conditions, sodium salt): very great amelioration of the problem; also recorded: equally as good, or possibly even slightly better when introduced via the hydrogen peroxide solution; Residual Nitrosamine ([2]; lower mole ratio 2.15:1 (Ex 10)): 1031 ppb |
